Data on three compounds can be found in paper PMC11947101, “A phase Ia study of the MEK1/2 inhibitor PD-0325901 with the c-MET inhibitor crizotinib in patients with advanced solid cancers” (BJC Reports, 2025).

Data set [1] relates to patients with advanced malignancies. The following applies: cited from earlier work.
In another data set the test system is pERK1/2. On the set-up: method as in PMID 20215549. Particulars: doses ≥2 mg PD-0325901 B.D; cited from earlier work.
Data set [2] relates to pERK1/2 and pMEK1/2 levels in skin biopsies. The data set is described as follows: Pharmacodynamic markers in paired skin biopsies by Western blotting. The data set is classed as in vivo, human. The following applies: in particular at 8 mg B.D PD-0325901. For orientation: In western blotting, separated proteins are transferred to a membrane and probed.
Description: All patients consented to a fresh frozen punch skin biopsy during screening and on cycle 1 day 15 (±7 days). PD markers of MEK1/2 inhibition (pMEK1/2 and pERK1/2 levels) in skin biopsies were assessed by Western blotting, previously described [18, 30]. […] Western blot images were developed using the G:BOX Chemi XX6 gel doc system (Syngene, Cambridge, UK). Densitometry on Western blot images was performed using ImageJ software.
In data set [3] the test system is patients with advanced solid tumours. Particulars: in vivo.
Excerpt: (§1) Patients could remain on combination treatment until disease progression or predefined unacceptable toxicity. At each dose level and before escalation to the next level, a safety study board comprising representatives from the study sponsor and collaborating investigators reviewed individual patient safety and DLTs. DLTs were defined as an almost certainly or probable drug-related adverse events to either drug (Supplementary Table S1), during the first cycle of treatment.
(§2) Safety assessments comprised of physical examination including vital signs, weight, ECOG PS assessment, documentation of adverse events (AEs) and concomitant medication, with regular monitoring of haematology and biochemistry. Ophthalmic examinations (including visual acuity, pressure, perimetry, slit lamp examination, fundoscopy, and optical coherence tomography), ECG and Echocardiography/MUGA were performed at baseline and at pre-defined time-points during the trial. […] At this stage, patients were not required to have measurable disease. Anti-tumour activity was assessed by radiological investigations according to revised RECIST, version 1.1, at baseline (within 28 days before day 1 of cycle 1), then every 2 cycles and at the end of treatment.
(§3) Safety and efficacy data were summarised using descriptive statistics. Evaluable patients for toxicity were those patients that received at least one dose of one or both drugs. Evaluable patients for MTD or dose escalation were those patients who completed cycle 1 or withdrew early for experiencing a DLT. Response analyses (i.e., RECIST 1.1) were performed on an intention-to-treat basis, and any patient who received any dose of study treatment was evaluable for response. Progression-free-survival (PFS) was defined as the time between receiving the first dose of study medication (cycle 1, day -7) to disease progression or death from any cause. Overall survival (OS) was defined as the time between cycle 1, day -7 to death from any cause.
The nature of data set [4]: Plasma pharmacokinetics (HPLC-MS/MS) of crizotinib, PD-0325901 and PD-0315209 in patients. The data set is classed as in vivo, human. The following applies: for Decrease in pre-dose concentrations on Days 21 compared to Day -1: Cycle 1 and 2, PD-0325901 8 mg B.D dose only; for Tmax: plasma, po, combination treatment, 4 dose levels, read-out: Time of peak plasma concentrations after oral dosing. As to the method:
PK trough samples (pre-dose and 2-h post dose) were obtained on day 21 of cycles 2, 4, 6, 8, 10 and 12. Plasma concentrations were determined using a validated high-performance liquid chromatography mass spectrometry (HPLC-MS/MS) assay following solid-phase extraction of the plasma sample.

Data set [5] relates to patients with advanced solid tumours. The data set is described as follows: Phase Ia dose-escalation: safety, DLT and MTD of PD-0325901 with crizotinib.
Excerpt: as §1, §2, §3
The next data set deals with cMET. Particulars: cited from earlier work.

Each structure is given as a SMILES string. A value given as a limit tells only on which side of the number the result lay.

Take `O=C(NOC[C@H](O)CO)c1ccc(F)c(F)c1Nc1ccc(I)cc1F` [PD-0325901]: in data set [1] (continuously, subsequently revised due to late retinal vein occlusion), the “Maximum tolerated dose (MTD), single agent” value is recorded as 15 mg twice daily (B.D). In data set [1] (irrespective of the schedule), the “Doses resulting in intolerable toxicity, single agent” value is reported as > 15 mg twice a day (B.D). Also, the “AUC at day 21 compared to day 1 (first dose), single agent” value in data set [1] (multiple B.D dosing) is recorded as “slightly higher”. For the same compound, the “Suppression of pERK1/2 in melanoma patient samples” value with pERK1/2 was ≥ 60%. Further, the “pMEK1/2 levels in skin biopsies, post- vs pre-treatment” value in data set [2] was “significant accumulation”. In data set [3], the “Serious adverse events thought to be drug-related” value is listed as “one”. In addition, the “Decrease in pre-dose concentrations on Days 21 compared to Day -1” value in data set [4] was 1.8–2.2 fold. The “Plasma concentrations relative to those required to inhibit MEK1/2 activity” value in data set [4] (all dose levels) is listed as “reached levels consistent with those required to inhibit MEK1/2 activity at all dose levels”. Also, the Tmax in data set [4] (human) was 1.02 to 2.27 h. The “Maximum tolerable dose (MTD) of PD-0325901 in combination with crizotinib” value in data set [5] (days 1–21 of 28-day cycle, with crizotinib 200 mg B.D) stood at 8 mg B.D.
`O=C(O)c1ccc(F)c(F)c1Nc1ccc(I)cc1F` [PD-0315209]: in data set [4], the “Decrease in pre-dose concentrations on Days 21 compared to Day -1” value is 1.8–2.2 fold.
As to `C[C@@H](Oc1cc(-c2cnn(C3CCNCC3)c2)cnc1N)c1c(Cl)ccc(F)c1Cl` [crizotinib], the “Pre-clinically predicted effective concentration to inhibit c-MET” value in the data set on cMET is 62 ng/mL. In addition, the “Steady state on multiple dosing” value in data set [4] (Cycle 1 Day 21 vs Cycle 1 Day 28) is on record as “reached steady state by day 21”. Moreover, the “Median trough plasma concentrations” value in data set [4] (all cohorts (data not shown)) is recorded as > 62 ng/mL. Further, the “Increase in crizotinib Cmax, Cmin and AUC0-10h with B.D dosing (cohorts 2-4) compared with cohort 1 (O.D)” value in data set [4] (days 21 and 28, p < 0.05) is given as 1.6–2.6 fold. The “Effect of PD-0325901 dose escalation (cohort 2 to cohort 4) on PK parameters of crizotinib” value in data set [4] (human, in vivo) was “did not appear to affect”. In addition, in data set [4] (human), the Tmax lay within 2.76 to 5.21 h. Also, the “Number of drug-related adverse events determined to be related to the named drug” value in data set [5] (all cohorts, combination treatment) is 124. Further, in data set [5] (combination treatment, all cohorts), the “Patients requiring a dose reduction of the named drug due to DR-AEs” value is given as “No patients”. Moreover, the “Maximum tolerable dose (MTD) of crizotinib in combination with PD-0325901” value in data set [5] (continuously (days 1–28), with PD-0325901 8 mg B.D) worked out at 200 mg B.D.
